Columns and labels:
Type in all cases: cell-based, Enterobacteriaceae
[1] = tested on: VIM strains; details: class B CPEs of VIM type; proportionally to the EDTA concentration used
Text: (§1) Optimization of the Detection Specificity by Introducing Specific Inhibitors Inhibition of Class B Strains (NDM, VIM, IMP) by Adding EDTA
(§2) Identical to that used to determine the temocillin MICs by agar dilution (example 1).
(§3) For each temocillin concentration, the following concentrations of active EDTA will be tested in the form of disodium EDTA: 0, 1.77, 2.12, 2.47 and 2.83 mmol/l.
(§4) Method: identical to the method used in example 1.

[2] = tested on: strains with impermeability-mediated resistance (IR); details: strains with impermeability-mediated resistance to carbapenems (IR)
Text: as §1, §2, §3, §4

[3] = tested on: NDM-1 strains; details: class B CPEs of NDM type; proportionally to the EDTA concentration used
Text: as §1, §2, §3, §4

O=C(O)CN(CCN(CC(=O)O)CC(=O)O)CC(=O)O [EDTA]
effect of EDTA on temocillin MIC [1]: decrease in their MIC
effect of EDTA on temocillin MIC [2]: slight increase in the MICs
effect of EDTA on temocillin MIC [3]: decrease in their MIC

From US9562899B2, “Method of detecting OXA-048 carbapenemase producing bacteria” (BIOMÉRIEUX, priority 2012, dated 2017)
